Reference: paper PMC4961623 (Journal of neurochemistry, 2016)

Biological target: T1, sterol carrier protein-2 (SCP-2) (Homo sapiens, UniProt P22307)
T1 sequence (P22307 425-547): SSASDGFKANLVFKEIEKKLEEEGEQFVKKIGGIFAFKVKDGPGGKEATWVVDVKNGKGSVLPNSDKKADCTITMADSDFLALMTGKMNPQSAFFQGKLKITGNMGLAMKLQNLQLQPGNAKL
Experiment: fluorescent cis-parinaric acid displacement assay
Assay type: binding

| Compound | Ki |
| --- | --- |
| CCCCC/C=C\C/C=C\C/C=C\C/C=C\CCCC(=O)OC(CO)CO [2-AG, 2-arachidonoylglycerol] | 200 ± 10 nM |
| CCCCC/C=C\C/C=C\C/C=C\C/C=C\CCCC(=O)NCCO [AEA, arachidonoylethanolamide] | 290 ± 10 nM |
